For data set [1] the following is noted: DTA.
Data set [2] in a line: Molar enthalpy of transition or fusion. Conditions: DSC.

The source of these data is the NIST ThermoML archive (doi:10.1016/j.tca.2006.04.011).

± gives the expanded uncertainty stated by the source.

Turning to `Clc1cc(Cl)c2cc(Cl)c(Cl)c(Cl)c2c1` [1,2,3,5,7-pentachloronaphthalene], the Triple point temperature in data set [1] (Crystal 1) is listed as 444.85 ± 3.2 K. Further, in data set [2] (Crystal 1), the “Molar enthalpy of transition or fusion” value worked out at 6.15 ± 0.213 kcal/mol.
Consider `Clc1cc2c(Cl)ccc(Cl)c2c(Cl)c1Cl` [1,2,3,5,8-pentachloronaphthalene], for which the results for the Triple point temperature in data set [1] (Crystal 1), in data set [1] (Crystal 2) and in data set [1] (Crystal 3) were 453.25 ± 3.2 K, 443.35 ± 3.2 K and 387.75 ± 3.2 K, respectively. Moreover, the “Molar enthalpy of transition or fusion” value in data set [2] (Crystal 1) stood at 2.02 ± 0.179 kcal/mol; in data set [2] (Crystal 2), 0.22 ± 0.172 kcal/mol; in data set [2] (Crystal 3) it was 3.44 ± 0.189 kcal/mol.
`Clc1cc(Cl)c2c(Cl)c(Cl)cc(Cl)c2c1Cl` [1,2,4,5,6,8-hexachloronaphthalene]: the Triple point temperature in data set [1] (Crystal 1) is recorded as 449.35 ± 3.2 K. Also, the “Molar enthalpy of transition or fusion” value in data set [2] (Crystal 1) worked out at 6.9 ± 0.22 kcal/mol.
Regarding `Clc1cc(Cl)c2c(Cl)c(Cl)ccc2c1Cl` [1,2,4,5,6-pentachloronaphthalene], the Triple point temperature in data set [1] (Crystal 1) was found to be 412.65 ± 3.2 K; in data set [1] (Crystal 2), 404.15 ± 3.2 K. Also, the “Molar enthalpy of transition or fusion” value was found to be 2.01 ± 0.179 kcal/mol in data set [2] (Crystal 1) and 3.74 ± 0.191 kcal/mol in data set [2] (Crystal 2).
As for `Clc1cc(Cl)c2c(Cl)c(Cl)cc(Cl)c2c1` [1,2,4,6,8-pentachloronaphthalene], in data set [1] (Crystal 1), the Triple point temperature was 428.95 ± 3.2 K. The “Molar enthalpy of transition or fusion” value in data set [2] (Crystal 1) amounted to 4.72 ± 0.198 kcal/mol.
With `Clc1cc(Cl)c2cc(Cl)cc(Cl)c2c1` [1,3,5,7-tetrachloronaphthalene], in data set [1] (Crystal 1), the Triple point temperature is listed as 452.95 ± 3.2 K. Also, the “Molar enthalpy of transition or fusion” value in data set [2] (Crystal 1) was 6.49 ± 0.215 kcal/mol.
In the case of `Clc1cc2c(Cl)c(Cl)c(Cl)c(Cl)c2c(Cl)c1Cl` [naphthalene, 1,2,3,4,5,6,7-heptachloro-], the Triple point temperature in data set [1] (Crystal 1) is listed as 455.95 ± 3.2 K; in data set [1] (Crystal 2), 454.45 ± 3.2 K. In addition, the “Molar enthalpy of transition or fusion” value in data set [2] (Crystal 1) turned out to be 2.09 ± 0.179 kcal/mol; in data set [2] (Crystal 2), 2.04 ± 0.179 kcal/mol.
As to `Clc1c(Cl)c(Cl)c2ccccc2c1Cl` [naphthalene, 1,2,3,4-tetrachloro-], the Triple point temperature in data set [1] (Crystal 1) amounted to 470.75 ± 3.2 K; in data set [1] (Crystal 2), 454.25 ± 3.2 K; in data set [1] (Crystal 3), 440.45 ± 3.2 K. Further, the “Molar enthalpy of transition or fusion” value in data set [2] (Crystal 1) amounted to 2.76 ± 0.184 kcal/mol; in data set [2] (Crystal 2), 0.318 ± 0.172 kcal/mol; in data set [2] (Crystal 3), 2.52 ± 0.182 kcal/mol.
Turning to `Clc1cc2cc(Cl)c(Cl)c(Cl)c2cc1Cl` [naphthalene, 1,2,3,6,7-pentachloro-], in data set [1] (Crystal 1), the Triple point temperature came out at 416.55 ± 3.2 K. Further, the “Molar enthalpy of transition or fusion” value in data set [2] (Crystal 1) was 5.48 ± 0.206 kcal/mol.
For `Clc1cc2ccc(Cl)c(Cl)c2c(Cl)c1Cl` [naphthalene, 1,2,3,7,8-pentachloro-], in that order: 381.55 ± 3.2 K and 4.19 ± 0.194 kcal/mol.
With `Clc1cc2ccccc2c(Cl)c1Cl` [naphthalene, 1,2,3-trichloro-], in data set [1] (Crystal 1), the Triple point temperature was determined as 354.65 ± 3.2 K. In data set [2] (Crystal 1), the “Molar enthalpy of transition or fusion” value was found to be 4.41 ± 0.196 kcal/mol.
Consider `Clc1cc2c(Cl)cc(Cl)c(Cl)c2cc1Cl` [naphthalene, 1,2,4,6,7-pentachloro-], for which the Triple point temperature in data set [1] (Crystal 1) worked out at 404.25 ± 3.2 K. For the same compound, in data set [2] (Crystal 1), the “Molar enthalpy of transition or fusion” value was 5.4 ± 0.206 kcal/mol.
For the compound `Clc1ccc2ccc(Cl)c(Cl)c2c1Cl` [naphthalene, 1,2,7,8-tetrachloro-], in data set [1] (Crystal 1), the Triple point temperature was determined as 401.25 ± 3.2 K. In data set [2] (Crystal 1), the “Molar enthalpy of transition or fusion” value was 3.49 ± 0.189 kcal/mol.
